Data from ChEMBL document CHEMBL1201862, “PubChem BioAssay data set” (2004).
Calls of active or inactive are those of the source.

Experiments:
HeLa = experiment: viability loss in HeLa cells – cell-based, 24 h, cherry-picked samples, cytotoxicity control, dose response (AID 504726); assay type: functional; conditions: Homo sapiens;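 note: potency for cytotoxicity as loss of luminescence signal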
Trypsin = Trypsin (Sus scrofa, UniProt P00761); experiment: trypsin protease activity blockade – biochemical, quenched peptide fluorescence, cherry-pick, selectivity assay for Rce1 protease inhibitor project, dose response (AID 488789)
Sequence of Trypsin (P00761 whole entry): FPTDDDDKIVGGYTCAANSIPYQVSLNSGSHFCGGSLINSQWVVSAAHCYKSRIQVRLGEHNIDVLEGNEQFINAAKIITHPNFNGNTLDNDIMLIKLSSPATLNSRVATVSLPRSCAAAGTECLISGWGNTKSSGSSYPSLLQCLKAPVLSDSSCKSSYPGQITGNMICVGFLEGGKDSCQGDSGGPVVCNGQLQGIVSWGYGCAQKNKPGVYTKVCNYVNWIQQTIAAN

CAAX prenyl protease 2 = biological target: T1, CAAX prenyl protease 2 (Homo sapiens, UniProt Q9Y256); experiment: inhibition of Ras-converting CAAX protease Rce1 – biochemical, yeast membranes, quenched-peptide fluorescence, cherry-pick, dose response (AID 588849)
T1 sequence (Q9Y256 whole entry): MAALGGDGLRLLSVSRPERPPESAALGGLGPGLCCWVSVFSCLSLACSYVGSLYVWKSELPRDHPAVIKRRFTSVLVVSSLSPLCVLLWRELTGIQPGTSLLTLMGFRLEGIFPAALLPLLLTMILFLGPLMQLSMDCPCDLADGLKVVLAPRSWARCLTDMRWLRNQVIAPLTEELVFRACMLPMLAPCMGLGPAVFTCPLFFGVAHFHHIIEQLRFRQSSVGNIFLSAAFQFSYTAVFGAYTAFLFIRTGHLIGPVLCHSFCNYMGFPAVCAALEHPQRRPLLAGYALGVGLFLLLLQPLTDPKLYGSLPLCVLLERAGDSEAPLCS

[1] = biological target: T2, Dual specificity protein phosphatase 3 (Homo sapiens, UniProt P51452); experiment: SAR VHR1 Fluorescent Assay for In Vitro dose response studies Set 2. [Related pubchem assays (depositor defined):AID1654, AID1661, AID1878]; assay type: functional
T2 sequence (P51452 whole entry): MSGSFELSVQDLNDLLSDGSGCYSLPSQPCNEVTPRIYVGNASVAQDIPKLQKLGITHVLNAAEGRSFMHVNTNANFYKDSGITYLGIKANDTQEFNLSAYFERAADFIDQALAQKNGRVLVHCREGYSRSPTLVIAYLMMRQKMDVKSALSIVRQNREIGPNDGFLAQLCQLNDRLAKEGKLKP

[2] = biological target: T3, Tyrosine-protein phosphatase non-receptor type 22 (Homo sapiens, UniProt Q9Y2R2); experiment: SAR LYP1 Fluorescent Assay using OMFP substrate for In Vitro dose response studies - Set 3. [Related pubchem assays (depositor defined):AID1779, AID1784, AID2140, AID2686]; assay type: functional
T3 sequence (Q9Y2R2 whole entry): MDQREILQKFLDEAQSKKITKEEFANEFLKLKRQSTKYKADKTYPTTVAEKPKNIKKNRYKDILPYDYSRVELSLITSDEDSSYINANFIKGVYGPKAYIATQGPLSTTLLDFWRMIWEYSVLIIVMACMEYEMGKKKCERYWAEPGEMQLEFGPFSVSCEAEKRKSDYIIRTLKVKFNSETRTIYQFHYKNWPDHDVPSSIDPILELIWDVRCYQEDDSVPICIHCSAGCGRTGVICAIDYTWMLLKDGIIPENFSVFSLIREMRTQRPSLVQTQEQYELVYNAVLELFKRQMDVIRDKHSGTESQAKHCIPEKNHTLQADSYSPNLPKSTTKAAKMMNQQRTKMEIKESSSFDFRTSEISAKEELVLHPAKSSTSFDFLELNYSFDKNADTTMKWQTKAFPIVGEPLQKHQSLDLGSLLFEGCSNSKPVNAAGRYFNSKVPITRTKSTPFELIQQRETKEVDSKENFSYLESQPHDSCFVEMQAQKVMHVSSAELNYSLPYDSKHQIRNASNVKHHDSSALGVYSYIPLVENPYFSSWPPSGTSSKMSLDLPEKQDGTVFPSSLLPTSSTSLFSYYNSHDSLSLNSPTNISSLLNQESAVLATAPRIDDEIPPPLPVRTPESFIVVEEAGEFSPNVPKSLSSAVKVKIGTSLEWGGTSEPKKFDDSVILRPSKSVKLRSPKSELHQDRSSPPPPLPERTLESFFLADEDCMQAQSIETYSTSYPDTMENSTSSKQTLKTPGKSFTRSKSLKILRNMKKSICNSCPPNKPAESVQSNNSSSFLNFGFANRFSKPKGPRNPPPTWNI

[3] = biological target: T2, Dual specificity protein phosphatase 3; experiment: SAR VHR1 Fluorescent Assay for In Vitro dose response studies. [Related pubchem assays (depositor defined):AID1654, AID1661, AID1878, AID1992, AID2004, AID2070, AID2085]; assay type: functional
[4] = biological target: T4, Dual specificity protein phosphatase 6 (Rattus norvegicus, UniProt Q64346); assay type: functional;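 note: confirmatory in vitro dose-response testing of MKP-3 inhibition; recombinant His-tagged MKP-3 made in E. coli BL21 with OMFP substrate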
T4 sequence (Q64346 whole entry): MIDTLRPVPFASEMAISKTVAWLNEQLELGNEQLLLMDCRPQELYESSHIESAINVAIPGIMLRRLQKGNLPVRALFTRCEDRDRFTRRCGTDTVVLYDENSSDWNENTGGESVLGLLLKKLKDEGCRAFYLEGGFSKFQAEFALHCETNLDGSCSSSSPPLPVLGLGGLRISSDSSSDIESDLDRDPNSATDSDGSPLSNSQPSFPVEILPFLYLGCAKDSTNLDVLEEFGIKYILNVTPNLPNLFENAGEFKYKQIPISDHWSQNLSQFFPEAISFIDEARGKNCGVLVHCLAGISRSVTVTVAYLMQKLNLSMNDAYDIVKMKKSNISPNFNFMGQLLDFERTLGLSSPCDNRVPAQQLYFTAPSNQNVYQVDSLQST

[5] = biological target: T5, Tyrosine-protein phosphatase non-receptor type 7 (Homo sapiens, UniProt P35236); experiment: inhibition of hematopoietic tyrosine phosphatase HePTP – biochemical, set 2, SAR follow-up (AID 449736); assay type: functional
T5 sequence (P35236 whole entry): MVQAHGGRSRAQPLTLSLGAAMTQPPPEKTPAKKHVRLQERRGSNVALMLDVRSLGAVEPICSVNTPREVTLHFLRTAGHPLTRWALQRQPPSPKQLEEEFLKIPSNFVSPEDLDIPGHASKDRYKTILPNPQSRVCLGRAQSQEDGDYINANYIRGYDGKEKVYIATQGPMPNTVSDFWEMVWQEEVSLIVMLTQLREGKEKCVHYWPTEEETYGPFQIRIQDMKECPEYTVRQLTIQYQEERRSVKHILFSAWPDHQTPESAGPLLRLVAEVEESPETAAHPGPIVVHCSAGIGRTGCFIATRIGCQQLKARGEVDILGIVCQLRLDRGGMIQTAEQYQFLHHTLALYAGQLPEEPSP

[6] = biological target: T5, Tyrosine-protein phosphatase non-receptor type 7; experiment: redox-active compounds inhibiting HePTP phosphatase – biochemical, fluorescence, mechanism study (AID 2068); assay type: functional
[7] = biological target: T6, Tyrosine-protein phosphatase non-receptor type 12 (Homo sapiens, UniProt Q05209); experiment: SAR Selectivity Analysis of small molecule inhibitors of PEST using pCAP in a fluorescence assay. [Related pubchem assays (depositor defined):AID1779, AID1784, AID2135]; assay type: functional
T6 sequence (Q05209 whole entry): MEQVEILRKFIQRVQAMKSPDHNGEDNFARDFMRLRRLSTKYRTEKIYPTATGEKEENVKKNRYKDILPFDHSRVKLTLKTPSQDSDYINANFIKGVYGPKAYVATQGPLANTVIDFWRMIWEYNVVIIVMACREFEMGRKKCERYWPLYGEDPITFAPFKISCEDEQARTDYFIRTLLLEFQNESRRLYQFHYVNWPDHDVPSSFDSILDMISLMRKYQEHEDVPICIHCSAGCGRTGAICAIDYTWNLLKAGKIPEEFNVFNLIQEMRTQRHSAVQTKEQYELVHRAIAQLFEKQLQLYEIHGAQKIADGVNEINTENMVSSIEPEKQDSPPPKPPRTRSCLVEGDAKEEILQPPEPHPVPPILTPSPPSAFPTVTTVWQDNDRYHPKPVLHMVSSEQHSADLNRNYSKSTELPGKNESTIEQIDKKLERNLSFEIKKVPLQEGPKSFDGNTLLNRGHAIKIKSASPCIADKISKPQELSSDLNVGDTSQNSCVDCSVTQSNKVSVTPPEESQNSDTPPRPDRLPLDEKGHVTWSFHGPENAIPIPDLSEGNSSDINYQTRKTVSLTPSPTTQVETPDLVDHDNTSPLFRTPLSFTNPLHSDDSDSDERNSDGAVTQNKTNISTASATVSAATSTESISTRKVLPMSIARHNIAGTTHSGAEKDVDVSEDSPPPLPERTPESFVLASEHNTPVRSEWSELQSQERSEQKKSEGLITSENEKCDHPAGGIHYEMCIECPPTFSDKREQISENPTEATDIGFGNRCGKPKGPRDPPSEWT

[8] = biological target: T2, Dual specificity protein phosphatase 3; experiment: MOA VHR1 Fluorescent secondary assay for identification of redox-state modulating compounds. [Related pubchem assays (depositor defined):AID1654, AID1661, AID1878, AID1957]
HEK293 [9] = experiment: Cytotoxicity assay in HEK293 cells. [Related pubchem assays (depositor defined):AID1266, AID1269, AID1270, AID1271, AID1280, AID1281, AID1282, AID1283, AID1287, AID1289, AID1290, AID1291, AID1292, AID1293, AID1294, AID1295, AID1299, AID1302, AID1364, AID1365, AID1366, AID1367, AID1369, AID1370, AID1371, AID1372, AID1373, AID1374, AID1375, AID1384 …; assay type: functional, cell-based; conditions: Homo sapiens
BJ [10] = experiment: growth inhibition of engineered Ras-driven BJ cells – cell-based, alamar blue fluorescence, cherrypicked samples, dose response (AID 2631); assay type: functional; conditions: Homo sapiens;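 note: confirmatory dose-response assay in RAS-dependent BJ fibroblasts engineered with TERT, LT and ST, with cytotoxicity read by fluorescence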
[11] = biological target: T7, Luciferin 4-monooxygenase (Photinus pyralis, UniProt P08659); experiment: In vitro luciferase assay using purified luciferase. [Related pubchem assays: 1299, 1270, 1295, 1375, 1287, 1281, 1293, 1291, 1289, 1280, 465, 1364, 1282, 1372, 1365, 1370, 1367, 1366, 1266, 1373, 1292, 1290, 1302, 1371, 1283, 1271, 1294, 1374, 1368, 1369 ]
T7 sequence (P08659 whole entry): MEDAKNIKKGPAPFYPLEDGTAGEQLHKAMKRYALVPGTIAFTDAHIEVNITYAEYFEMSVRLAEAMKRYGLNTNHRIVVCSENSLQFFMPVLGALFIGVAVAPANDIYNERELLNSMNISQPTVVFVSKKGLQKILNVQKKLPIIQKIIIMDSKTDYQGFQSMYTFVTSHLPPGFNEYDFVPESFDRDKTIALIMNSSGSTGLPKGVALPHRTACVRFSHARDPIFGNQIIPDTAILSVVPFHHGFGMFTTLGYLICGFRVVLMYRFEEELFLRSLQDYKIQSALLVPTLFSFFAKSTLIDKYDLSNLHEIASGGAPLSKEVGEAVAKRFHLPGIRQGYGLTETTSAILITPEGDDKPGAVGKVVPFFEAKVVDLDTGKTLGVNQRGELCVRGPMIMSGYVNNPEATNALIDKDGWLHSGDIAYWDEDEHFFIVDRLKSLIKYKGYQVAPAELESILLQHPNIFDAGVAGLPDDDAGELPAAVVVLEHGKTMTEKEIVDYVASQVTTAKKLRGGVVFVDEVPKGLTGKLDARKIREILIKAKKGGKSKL

[12] = Luminescence Cell-Based Dose Confirmation HTS to Identify Inhibitors of Platelet Dense Granule Release. [Related pubchem assays: 1663 (Primary HTS), 1678 (Summary of Project)]; assay type: functional
[13] = luciferase reporter signal reduction – luminescence, H4-C neuroglioblastoma cells, dose response (AID 2458); assay type: functional, cell-based;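 note: H4 neuroglioblastoma cells stably carrying a luciferase reporter gene fusion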
[14] = biological target: Mitogen-activated protein kinase 10 (Homo sapiens, UniProt P53779); experiment: Dose response biochemical screening assay for inhibitors of c-Jun N-Terminal Kinase 3 (JNK3). [Related pubchem assays: 746 ]
Sequence of Mitogen-activated protein kinase 10 (P53779 whole entry): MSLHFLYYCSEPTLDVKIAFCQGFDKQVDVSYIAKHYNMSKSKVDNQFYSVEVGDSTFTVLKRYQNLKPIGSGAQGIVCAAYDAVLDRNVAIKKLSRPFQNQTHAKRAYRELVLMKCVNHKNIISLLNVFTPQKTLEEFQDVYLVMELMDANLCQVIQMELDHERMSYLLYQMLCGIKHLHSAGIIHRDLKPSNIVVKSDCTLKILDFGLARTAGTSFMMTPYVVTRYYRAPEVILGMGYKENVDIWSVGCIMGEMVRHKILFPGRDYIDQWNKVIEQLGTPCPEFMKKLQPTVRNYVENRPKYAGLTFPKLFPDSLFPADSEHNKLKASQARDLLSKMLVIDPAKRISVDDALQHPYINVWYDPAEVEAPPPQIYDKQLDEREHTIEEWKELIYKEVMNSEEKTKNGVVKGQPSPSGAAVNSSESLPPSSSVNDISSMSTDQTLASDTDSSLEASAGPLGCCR

[15] = biological target: T7, Luciferin 4-monooxygenase; experiment: inhibition of purified Photinus pyralis luciferase – biochemical, luminescence, dose response (AID 1891)
BJ [16] = experiment: BJ-TERT-LT-ST fibroblast viability loss – cell-based, RAS-independent, luminescence, dose response (AID 1935); assay type: functional; conditions: Homo sapiens;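 note: BJ fibroblasts immortalized with TERT plus LT and ST oncogenes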
[17] = HEK-293T viability loss after treatment – luminescence, T-cell screen hits, cytotoxicity control for TCR NF-kB inhibitor project, dose response (AID 489026); assay type: functional, cell-based;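 note: cells exposed to compound about 14 hours before the viability readout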
BJ [18] = experiment: BJ-TERT fibroblast viability loss – cell-based, RAS-independent, luminescence, dose response (AID 1933); assay type: functional; conditions: Homo sapiens
[19] = luciferase reporter signal suppression in cells – H4 neuroglioma cells, luminescence, dose response (AID 1990); assay type: functional, cell-based
HEK293 [20] = experiment: PMA/Ionomycin induced NF-kB luciferase assay in 293- NF-kB-Luc stable cells. [Related pubchem assays: 1299, 1270, 1295, 1375, 1287, 1281, 1293, 1291, 1289, 1280, 465, 1364, 1282, 1372, 1365, 1370, 1367, 1366, 1269, 1373, 1292, 1290, 1302, 1371, 1283, 1271, 1294, 1374, 1368, 1369 ]; assay type: functional, cell-based; conditions: Homo sapiens
HT-1080 = experiment: HT1080 cell viability loss – fluorescence readout (AID 620); assay type: functional, cell-based; conditions: Homo sapiens
cells = assay type: functional, cell-based
[21] = alpha-synuclein stem-loop luciferase translation blockers – H4 neuroglioma cells, luminescence, confirmation (AID 1988); assay type: functional, cell-based
[22] = DRD fibroblast viability loss – cell-based, non-viral oncogenic, luminescence, dose response (AID 1934); assay type: functional; conditions: Homo sapiens
[23] = alpha-synuclein stem-loop translation blockers – luminescence, H4 neuroglioblastoma cells, dose confirmation, confirmation (AID 2454); assay type: functional, cell-based;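 note: H4 neuroglioblastoma cells carrying an alpha-synuclein 5'UTR luciferase reporter; potency for inhibition of the luciferase signal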
[24] = biological target: T7, Luciferin 4-monooxygenase; experiment: Counter Screen for Luciferase-based Assay Positives. [Related pubchem assays: 620, 618, 411 ]

COc1cccc2[nH]c(C(=O)NC(C)c3ccccc3)cc12 (centres undefined)
AC50 (HeLa): 182 µM (active) | AC50 (Trypsin): 11.2 µM (active) | AC50 (CAAX prenyl protease 2): 12.1 µM (active)

CCOC(=O)C1=C(C)N=c2s/c(=C/c3cc(Cl)c(OCC(=O)O)c(OC)c3)c(=O)n2C1c1ccccc1Cl (centres undefined)
IC50 [1]: 41.1 µM (active) | IC50 [2]: 30.5 µM (active) | IC50 [3]: 15.1 µM (active) | IC50 [4]: 39.5 µM (active) | IC50 [5]: 1.72 µM (active) | IC50 [6]: 1.65 µM (active) | IC50 [7]: 7.63 µM (active) | IC50 [8]: 3.07 µM (active)

CCCN1C=CC(=C2C(=O)c3ccccc3C2=O)C=C1
EC50 (HEK293 [9]): 0.589 µM (active) | EC50 (BJ [10]): > 133 µM (inactive) | EC50 [11]: 1.09 µM (active) | EC50 [12]: 7.02 µM (active) | EC50 [13]: 0.127 µM (active) | IC50 [14]: 9.84 µM (active) | EC50 [15]: 0.719 µM (active) | EC50 (BJ [16]): 18.2 µM (active) | IC50 [17]: > 80 µM (inactive) | EC50 (BJ [18]): 6.69 µM (active) | EC50 [19]: < 0.195 µM (active) | EC50 (HEK293 [20]): 0.774 µM (active) | EC50 (HT-1080): > 50 µM (not active) | EC50 (cells): 0.135 µM (active) | EC50 [21]: < 0.1 µM (active) | EC50 [22]: 6.78 µM (active) | EC50 [23]: 0.139 µM (active) | EC50 [24]: 0.98 µM (active)
